In US20220235006A1, “PYRIDINE DERIVATIVES AS TMEM16A MODULATORS FOR USE IN THE TREATMENT OF RESPIRATORY CONDITIONS” (TMEM16A LIMITED, priority 2019, published 2022):
In brackets after ≈: the same amount, converted by molar mass.

Legend:
[1] = Kinetic solubility determination (high throughput); format: physicochemical; details: kinetic from dmso stock, sterile water, 5% DMSO, room temperature
[2] = target: T1, human TMEM16A (TMEM16Aabc variant) (Homo sapiens, UniProt Q5XXA6, DEL476-501); test: Automated whole-cell patch clamp (Qpatch) TMEM16A potentiator assay in recombinant FRT cells; format: cell-based; details: for activation at 3.33 µM: percentage increase of baseline TMEM16A current, minimum n = 2, read-out: % Potentiation @ 3.33 uM Avg; for EC50: minimum n = 2
T1 sequence (Q5XXA6 with tags, fused parts or gaps isoform Q5XXA6-5 DEL539-564): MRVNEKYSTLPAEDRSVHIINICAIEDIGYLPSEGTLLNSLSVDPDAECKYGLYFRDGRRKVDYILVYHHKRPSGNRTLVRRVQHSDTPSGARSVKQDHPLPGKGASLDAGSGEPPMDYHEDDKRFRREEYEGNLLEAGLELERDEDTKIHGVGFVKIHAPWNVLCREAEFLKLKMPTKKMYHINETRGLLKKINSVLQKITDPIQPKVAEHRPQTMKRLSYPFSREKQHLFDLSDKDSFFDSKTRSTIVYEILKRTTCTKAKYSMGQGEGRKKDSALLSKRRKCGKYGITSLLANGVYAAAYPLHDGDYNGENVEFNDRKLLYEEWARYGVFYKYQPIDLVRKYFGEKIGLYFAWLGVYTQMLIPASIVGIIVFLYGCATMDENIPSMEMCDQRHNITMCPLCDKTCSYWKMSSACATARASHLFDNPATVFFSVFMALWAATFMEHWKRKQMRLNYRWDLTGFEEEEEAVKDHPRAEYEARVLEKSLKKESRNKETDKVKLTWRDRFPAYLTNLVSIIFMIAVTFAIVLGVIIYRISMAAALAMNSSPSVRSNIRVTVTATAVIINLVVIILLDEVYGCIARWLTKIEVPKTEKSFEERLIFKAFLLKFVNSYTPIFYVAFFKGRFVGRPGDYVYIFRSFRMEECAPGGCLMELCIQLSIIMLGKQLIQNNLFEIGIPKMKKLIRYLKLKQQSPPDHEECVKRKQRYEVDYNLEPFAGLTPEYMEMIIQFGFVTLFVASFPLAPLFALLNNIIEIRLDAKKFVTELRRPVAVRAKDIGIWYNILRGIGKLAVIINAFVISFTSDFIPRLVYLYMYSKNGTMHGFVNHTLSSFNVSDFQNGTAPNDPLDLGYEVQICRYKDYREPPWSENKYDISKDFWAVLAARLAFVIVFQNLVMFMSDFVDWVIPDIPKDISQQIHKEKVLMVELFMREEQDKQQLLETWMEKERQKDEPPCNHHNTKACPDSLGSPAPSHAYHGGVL
Method in brief: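 FRT cells stably expressing human TMEM16Aabc, whole-cell automated patch clamp with intracellular Ca2+ buffered for ~20% maximal current (EC20). Held at −70 mV, step to +70 mV/ramp at 0.05 Hz, cumulative compound additions of 5 min each. Peak +70 mV current increase expressed as % potentiation of baseline.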

| solubility kinetic at 90 min [1] [µg/mL] | activation at 3.33 µM [2] [%] | EC50 [2] [nM] | SMILES |
| --- | --- | --- | --- |
| 120 (≈ 248 µM) | 208 | 43 | CC(C)(CCO)c1cc(F)c(CC(=O)Nc2ccnc(C(=O)NC3(C(F)(F)F)CC3)c2)cc1O [Example 11, 4-[[2-[2-Fluoro-5-hydroxy-4-(3-hydroxy-1,1-dimethyl-propyl)phenyl]acetyl]amino]-N-[1-(trifluoromethyl)cyclopropyl]pyridine-2-carboxamide] |
| 37 (≈ 93.8 µM) | 476 | 64 | CC(C)(C#N)NC(=O)c1cc(NC(=O)Cc2ccc(C(C)(C)C)c(O)c2)ccn1 [93.4 of PCT/GB2019/050209, reference compound] |
| 116 (≈ 247 µM) | 390 | 64 | CCC(C)(O)c1cc(F)c(CC(=O)Nc2ccnc(C(=O)NC3(C(F)(F)F)CC3)c2)cc1O (centres unmarked) [Example 2.11, 4-[[2-[2-Fluoro-5-hydroxy-4-(1-hydroxy-1-methyl-propyl)phenyl]acetyl]amino]-N-[1-(trifluoromethyl)cyclopropyl]pyridine-2-carboxamide] |
| 67 (≈ 139 µM) | 339 | 37 | O=C(Cc1cc(O)c(C2(CO)CCC2)cc1F)Nc1ccnc(C(=O)NC2(C(F)(F)F)CC2)c1 [Example 2.13, 4-[[2-[2-Fluoro-5-hydroxy-4-[1-(hydroxymethyl)cyclobutyl]phenyl]acetyl]amino]-N-[1-(trifluoromethyl)cyclopropyl]pyridine-2-carboxamide] |
| 90 (≈ 185 µM) | 490 | 33 | CC(C)(CO)c1cc(Cl)c(CC(=O)Nc2ccnc(C(=O)NC3(C(F)(F)F)CC3)c2)cc1O [Example 14, 4-[[2-[2-Chloro-5-hydroxy-4-(2-hydroxy-1,1-dimethyl-ethyl)phenyl]acetyl]amino]-N-[1-(trifluoromethyl)cyclopropyl]pyridine-2-carboxamide] |
| 35 (≈ 87.8 µM) | 380 | 104 | CC(C#N)NC(=O)c1cc(NC(=O)Cc2cc(O)c(C(C)(C)C)cc2F)ccn1 (centres unmarked) [Example 1.3] |
| 152 (≈ 334 µM) | 243 | 64 | CC(C)(O)c1cc(F)c(CC(=O)Nc2ccnc(C(=O)NC3(C(F)(F)F)CC3)c2)cc1O [Example 2, 4-[[2-[2-Fluoro-5-hydroxy-4-(1-hydroxy-1-methyl-ethyl)phenyl]acetyl]amino]-N-[1-(trifluoromethyl)cyclopropyl]pyridine-2-carboxamide] |
| 292 (≈ 573 µM) | 374 | 93 | O=C(Cc1cc(O)c(C(CO)C(F)(F)F)cc1F)Nc1ccnc(C(=O)NC2(C(F)(F)F)CC2)c1 (centres unmarked) [Example 17, 4-[[2-[2-Fluoro-5-hydroxy-4-[2,2,2-trifluoro-1-(hydroxymethyl)ethyl]phenyl]acetyl]amino]N-[1-(trifluoromethyl)cyclopropyl]pyridine-2-carboxamide] |
| 142 (≈ 302 µM) | 270 | 30 | CC(C)(CO)c1cc(F)c(CC(=O)Nc2ccnc(C(=O)NC3(C(F)(F)F)CC3)c2)cc1O [Example 2.6, 4-[[2-[2-Fluoro-5-hydroxy-4-(2-hydroxy-1,1-dimethyl-ethyl)phenyl]acetyl]amino]-N-[1-(trifluoromethyl)cyclopropyl]pyridine-2-carboxamide] |
| 10 (≈ 24.9 µM) | – | 55 | CC(C)(C)NC(=O)c1cc(NC(=O)Cc2cc(O)c(C(C)(C)C)cc2F)ccn1 [91 of PCT/GB2019/050209, reference compound] |
| 164 (≈ 351 µM) | 250 | 36 | CC(C)(CO)c1cc(Cl)c(CC(=O)Nc2ccnc(C(=O)NC3(C(F)F)CC3)c2)cc1O [Example 15.3, 4-[[2-[2-Chloro-5-hydroxy-4-(2-hydroxy-1,1-dimethyl-ethyl)phenyl]acetyl]amino]-N-[1-(difluoromethyl)cyclopropyl]pyridine-2-carboxamide] |
| 154 (≈ 331 µM) | 233 | 45 | Cc1cc(C(C)(C)CO)c(O)cc1CC(=O)Nc1ccnc(C(=O)NC2(C(F)(F)F)CC2)c1 [Example 14.1, 4-[[2-[5-Hydroxy-4-(2-hydroxy-1,1-dimethyl-ethyl)-2-methyl-phenyl]acetyl]amino]-N-[1-(trifluoromethyl)cyclopropyl]pyridine-2-carboxamide] |
